{"source": "patent US8076371B2", "about": "“Gallium compositions for the treatment of liver cancer and methods of use” (priority 2006, dated 2011)", "key": {"[1]": {"system": "human hepatocellular carcinoma (HCC) cell lines (Hep3B, HepG2, SNU475, and Hep 40)", "assay": "Assessment of apoptotic cell morphology (hematoxylin and eosin, light microscope)", "type": "cell-based", "details": "30 μM, six days exposure; all four HCC cell lines", "experimental": "(§1) The activity of gallium maltolate and gallium nitrate was studied in vitro on several human hepatocellular carcinoma (HCC) cell lines (Hep3B, HepG2, SNU475, and Hep 40). Further information on these experiments is reported by Chua et al., Anticancer Research 26:1739-1744, 2006.\nAssessment of apoptotic cell morphology: After six days exposure to gallium maltolate at either 10 μM or 30 μM, cells were fixed using absolute methanol at −20° C. for 10 min, then stained with hematoxylin and eosin. Cell morphology was then observed with a light microscope."}, "[2]": {"system": "CD71 (transferrin receptor 1) in HCC cell lines", "assay": "Immunoblotting, CD71 (transferrin receptor 1) protein level", "type": "cell-based, human", "details": "six-day exposure to 10 μM or 30 μM; all four HCC cell lines", "experimental": "as §1\n(§2) Immunoblotting: Cells were exposed to 10 μM or 30 μM gallium maltolate for six days; whole cell lysates were then prepared and total protein quantified using the Bradford Assay. Approximately 20 μg of protein was electrophoresed on pre-cast gels and transferred onto PVDF membranes. Non-specific sites were blocked by incubation with 5% non-fat milk in TBS-1% Tween solution for 1 hr at room temperature. Proteins were then detected with specific antibodies against CD71 (transferrin receptor 1) or PARP at recommended dilutions, followed by appropriate HRP-conjugated secondary antibodies."}, "[3]": {"system": "poly(ADP-ribose) polymerase (PARP) in HCC cell lines", "assay": "Immunoblotting, PARP assay for apoptosis", "type": "cell-based, human", "details": "HCC cell lines Hep 3B, Hep 40, and SNU475; 10 μM or 30 μM, six days exposure", "experimental": "as §1, §2"}}}
{"smiles": "Cc1occc(=O)c1[O-].Cc1occc(=O)c1[O-].Cc1occc(=O)c1[O-].[Ga+3]", "note": "[gallium maltolate, tris(3-hydroxy-2-methyl-4H-pyran-4-onato)gallium]", "values": [{"measurement": "cellular morphology (apoptosis)", "setting": "[1]", "value": "indicative of apoptosis"}, {"measurement": "protein level of CD71 (transferrin receptor 1)", "setting": "[2]", "value": "dose-dependent increase"}, {"measurement": "poly(ADP-ribose) polymerase (PARP) assay for apoptosis", "setting": "[3]", "value": "positive"}]}
